Patent US12440497B2, “Compositions and methods for enhancing Wnt signaling for treating cancer” (Massachusetts Institute of Technology, priority 2021, dated 2025)
Several values for one entry are separate records, joined by “and”; a condition that tells them apart may be missing. Equal values may be shown once. Entries after “also recorded” stand apart in the source; their conditions may differ. Read-outs that look alike come from different tables or passages of the source.

How the values were obtained:
wildtype colon organoids = experiment: Wildtype colon organoid growth, resazurin viability assay; type: cell-based, Mouse and human; conditions: for growth of wildtype colon organoids: resazurin assay; for ranking by on-target vs off-target function in organoids: order: LY2090314, SAR502250, A-1070722, CHIR 99021
Protocol: (§1) Mouse and human organoids were grown in standard organoid culture systems using MATRIGEL® and Advanced DMEM/F12 media with 5% fetal bovine serum, and GLUTAMAX® supplementation. Dose responses of the labeled drugs were applied to the organoid cultures and resazurin viability assays were performed after 4 days of culture. Relative growth is assessed by conversion of resazurin to resorufin and is shown on the y axis.
To further generalize the approach using different GSK3 inhibitors, two other compounds were identified which via GSK3 inhibition, induce Wnt responses in colon organoids. […] Using primary wildtype colon crypts, the capacity of SAR502250 to promote wildtype organoid growth was evaluated using a resazurin metabolic based assay.

Wnt signaling = experiment: TOP-TdTomato Wnt reporter in wildtype organoids; type: cell-based
[1] = system: organoids that harbor an APC mutation; experiment: Growth of APC-mutant colon cancer organoid genotypes, resazurin assay; type: cell-based; conditions: at all concentrations; also with added KRAS, p53, SMAD4 mutations
Protocol: as §1
Same as FIG. 1, but the genotype of the organoids tested vary instead of being wildtype, they contain the mutations as indicated in the figure description.

[2] = system: Human colon cancers (colon tumor organoid lines); experiment: Human colon tumor organoid dose response, resazurin; type: cell-based; conditions: every human colon cancer, 4 days of culture
Protocol: Human colon cancers were collected from the operating room at MGH. Colon tumor organoids lines were generated from the resections and maintained in standard colon organoid culture conditions. Dose responses of LY2090314 were applied to the various human colon cancers and resazurin cell number counts were performed after 4 days of culture.

[3] = system: colon cancer organoids (AKPVT); experiment: AKPVT colon cancer organoid growth, resazurin based assay; type: cell-based, mouse; conditions: for inhibition of AKPVT colon cancer organoid growth: single agent
Protocol: FIG. 14 is a two-dimensional dose response of RSPO1 by LY2090314 on inhibiting colon cancer organoid growth (AKPVT), assessed by resazurin based assay.
Viability decrease was assessed using a resazurin based metabolic/proliferation assay.

colon cancer organoids = experiment: LY2090314 together with 5-FU on colon cancer organoids; type: cell-based; conditions: combination with 5-FU
From the text: LY2090314 was used together with 5-FU on colon cancer organoids. […] The cell killing or tumor inhibition effect of LY2090314 is additive with 5-FU. Thus, LY2090314 can be added to many of the existing chemotherapy regimens for colon cancer with improved outcomes.

[4] = in DMSO; cited from earlier work
β-catenin = conditions: 20 nM; cited from earlier work
GSK3 = conditions: cited from earlier work
melanoma cell lines = conditions: cited from earlier work
[5] = rats; cited from earlier work
[6] = dogs; cited from earlier work
[7] = humans; cited from earlier work
[8] = cited from earlier work
A375 xenograft = conditions: 25 mg/kg Q3D, i.v., cited from earlier work
[9] = Body weight of treated mice; type: in vivo; conditions: high dose, in one week
Protocol: In humans, the chemotherapy 5-Fluorouracil is a backbone of colon cancer therapy, however, has significant toxic side effects. Mice tolerate a higher dose of 5-Fluorouracil compared to humans on a per weight per day basis. When a high dose of 5-Fluorouracil is administered to mice, they lose 20% of their total weight in one week (FIG. 12A). […] This is in direct contrast to the improved inhibition of tumor burden and treatment effect identified by using the nanoparticle formulation of LY2090314 (FIGS. 5A-5C).

CN1CCN(S(=O)(=O)c2ccc(-c3cnc(N)c(C(=O)Nc4cccnc4)n3)cc2)CC1 [AZD2858]
growth of wildtype colon organoids (wildtype colon organoids): capacity to grow normal wildtype organoids; also recorded: clear low nanomolar capacity to support normal colon organoid growth
Wnt response, TOP-TdTomato reporter activity (Wnt signaling): promote a Wnt response; also recorded: confirmed to be on target Wnt signaling

Cc1c[nH]c(-c2cnc(NCCNc3ccc(C#N)cn3)nc2-c2ccc(Cl)cc2Cl)n1 [CHIR 99021]
ranking by on-target vs off-target function in organoids (wildtype colon organoids): best drugs in decreasing order of efficacy

O=C1NC(=O)C(c2cnc3ccccn23)=C1c1cn2c3c(cc(F)cc13)CN(C(=O)N1CCCCC1)CC2 [LY2090314]
ranking by on-target vs off-target function in organoids (wildtype colon organoids): best drugs in decreasing order of efficacy
growth of wildtype colon organoids (wildtype colon organoids): potently permits the growth; also recorded: general improvement in growth; also recorded: more potent than SAR502250
growth of organoids that harbor an APC mutation [1]: inhibited the growth
susceptibility of human colon cancer organoids [2]: showed susceptibility
combination effect with a Wnt agonist on tumor organoid growth ([3]; LY2090314 combined with RSPO1): synergistic effect
cell killing or tumor inhibition effect together with 5-FU (colon cancer organoids): additive
solubility [4]: 31 mg/mL and 60.48 mM
induction of Axin2 (β-catenin): induction of Axin2
stabilization of β-catenin total protein (β-catenin): time-dependent stabilization
fold selectivity relative to a large panel of kinases (GSK3): highly selective towards GSK3
activity in cell lines resistant to PLX4032 (melanoma cell lines): remains active
apoptotic cell death (melanoma cell lines; irrespective of BRAF mutation status): potently induces apoptotic cell death
half-life [5]: approximately 0.4 hours
half-life [6]: ~0.7 h
half-life [7]: 1.8 to 3.4 h
clearance ([8]; approximating hepatic blood flow): high clearance
volume of distribution ([8]; in vivo): 1 to 2 L/kg
Axin2 gene expression in vivo (A375 xenograft): elevates Axin2 gene expression
single agent activity in the A375 xenograft model (A375 xenograft): demonstrates single agent activity
effect on efficacy of DTIC (A375 xenograft; with DTIC): enhances the efficacy of DTIC

COc1ccc2c(NC(=O)Nc3cccc(C(F)(F)F)n3)ccnc2c1 [A-1070722]
ranking by on-target vs off-target function in organoids (wildtype colon organoids): best drugs in decreasing order of efficacy

O=c1[nH]cc(F)c(=O)[nH]1 [5-Fluorouracil]
loss of total weight [9]: 20%

Cn1c(N2CCO[C@@H](c3ccc(F)cc3)C2)nc(-c2ccncn2)cc1=O [SAR502250]
ranking by on-target vs off-target function in organoids (wildtype colon organoids): best drugs in decreasing order of efficacy
growth of wildtype colon organoids (wildtype colon organoids): capacity to grow normal wildtype organoids; also recorded: can independently permit wildtype organoid growth
inhibition of AKPVT colon cancer organoid growth [3]: more modest inhibition than LY2090314
Wnt response, TOP-TdTomato reporter activity (Wnt signaling): promote a Wnt response

B1: RSPO1: concentrated RSPO1, a Wnt agonist (protein, UniProt Q2MKA7 21-263, looked up)
R-spondin-1: SRGIKGKRQRRISAEGSQACAKGCELCSEVNGCLKCSPKLFILLERNDIRQVGVCLPSCPPGYFDARNPDMNKCIKCKIEHCEACFSHNFCTKCKEGLYLHKGRCYPACPEGSSAANGTMECSSPAQCEMSEWSPWGPCSKKQQLCGFRRGSEERTRRVLHAPVGDHAACSDTKETRRCTVRRVPCPEGQKRRKGGQGRRENANRNLARKESKEAGAGSRRRKGQQQQQQQGTVGPLTSAGPA
reduction in viability of colon cancer organoids ([3]; RSPO1 in the presence of low nanomolar LY2090314): more than 40%
inhibition of AKPVT colon cancer organoid growth [3]: modest effect
